Results: US8481679B2, “Immobilizing an entity in a desired orientation on a support material” (Arizona Board of Regents Acting on behalf of Arizona State …, priority 2007, dated 2013)

Assays:
carbonic anhydrase [1] = assay: Corning Epic binding of carbonic anhydrase to wells pre-coated with attachment peptides; settings: carbonic anhydrase at 1 μM; 30 and 180 minute incubation
Description: The selected candidate peptides were applied to the wells of a Corning Epic System 384-well microplate by linking the C-terminal cysteines of the peptides to surface amines of the Epic microplate wells via the maleimide and amine moieties, respectively, of a BMPH linker (Pierce). The immobilization of the peptides to the Epic microplate wells without carbonic anhydrase was first evaluated to identify any peptides binding poorly to the well surface, and to provide a basis for computing the maximum wavelength shift theoretically obtainable with optimal binding of the carbonic anhydrase to the peptides at a concentration sufficient to saturate. […] This could reflect inadequate binding to the surface due to poor solubility of the poorly binding peptides.
Carbonic anhydrase was applied in Epic microplate wells in which the selected peptides had been pre-applied to the well surface, in groups of four replicate wells and in carbonic anhydrase concentrations ranging from 31 nM to 1 μM. Observed wavelength shifts after 30 minute incubation of the indicated concentrations of carbonic anhydrase with peptides CA4, CA8, CA9, CA10, CA11, and CA12 are shown in FIG. 7(a).

carbonic anhydrase [2] = assay: Corning Epic binding of dansylamide to carbonic anhydrase immobilized by attachment peptides; settings: 1 μM dansylamide; six carbonic anhydrase concentrations, four replicates each; nearly all replicates
Protocol: Dansylamide, a known inhibitor of carbonic anhydrase, was applied to a range of concentrations (31 nM to 1 μM) of carbonic anhydrase immobilized in Epic wells by peptides CA4, CA8, CA9, CA10, CA11, and CA12. […] Wavelength shifts on the order of approximately 10 to 20 pm were observed upon application of the dansylamide to carbonic anhydrase immobilized at 1 μM concentration on peptides CA4, CA8, and CA11, confirming that the carbonic anhydrase was immobilized in an orientation that preserved the availability of the binding site (active site) and ability of the enzyme to consistently bind the inhibitor dansylamide, and confirming that the attachment peptides were able to immobilize carbonic anhydrase in the wells of an Epic plate in a manner such that binding of dansylamide to the carbonic anhydrase was readily detectable by the Epic technology.
For nearly all replicates, a shift on the order of 20 pm was observed upon application of the dansylamide.

beta-galactosidase = beta-galactosidase (Escherichia coli, UniProt P00722); settings: 50 nM beta-galactosidase, 5 μM FDG, 0.5 hour preincubation; selected peptide at 2, 10, 50, 100 μM
Sequence of beta-galactosidase (P00722 2-1024): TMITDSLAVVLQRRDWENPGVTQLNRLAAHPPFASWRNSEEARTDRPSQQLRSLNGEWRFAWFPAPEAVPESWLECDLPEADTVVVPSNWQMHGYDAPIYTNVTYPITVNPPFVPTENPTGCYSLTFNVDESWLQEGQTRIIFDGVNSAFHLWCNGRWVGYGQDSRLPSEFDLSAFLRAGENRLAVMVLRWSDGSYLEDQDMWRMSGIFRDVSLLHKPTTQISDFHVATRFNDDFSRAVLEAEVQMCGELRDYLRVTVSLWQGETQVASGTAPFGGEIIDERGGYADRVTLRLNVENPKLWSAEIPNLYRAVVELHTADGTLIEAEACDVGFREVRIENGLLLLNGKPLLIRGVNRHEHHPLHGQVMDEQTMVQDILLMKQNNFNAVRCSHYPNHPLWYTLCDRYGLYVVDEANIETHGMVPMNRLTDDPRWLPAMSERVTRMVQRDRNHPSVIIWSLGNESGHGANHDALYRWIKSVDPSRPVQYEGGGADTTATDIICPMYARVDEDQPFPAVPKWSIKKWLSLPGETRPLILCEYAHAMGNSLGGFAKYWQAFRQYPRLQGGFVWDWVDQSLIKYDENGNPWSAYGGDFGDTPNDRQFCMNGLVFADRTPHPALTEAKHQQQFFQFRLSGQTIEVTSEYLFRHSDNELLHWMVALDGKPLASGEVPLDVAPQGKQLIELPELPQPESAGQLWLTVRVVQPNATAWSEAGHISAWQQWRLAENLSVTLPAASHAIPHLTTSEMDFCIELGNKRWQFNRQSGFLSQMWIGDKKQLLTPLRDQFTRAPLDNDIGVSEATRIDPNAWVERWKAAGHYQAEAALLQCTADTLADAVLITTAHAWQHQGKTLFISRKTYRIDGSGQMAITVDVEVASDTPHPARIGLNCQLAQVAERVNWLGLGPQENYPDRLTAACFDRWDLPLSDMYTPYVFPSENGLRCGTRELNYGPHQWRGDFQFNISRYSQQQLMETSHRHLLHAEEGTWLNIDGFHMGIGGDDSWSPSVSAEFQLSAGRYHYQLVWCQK
Protocol: The enzyme activity of the entity beta-galactosidase when bound to the selected peptide having the sequence […] (SEQ ID NO. 2), was evaluated in solution phase by preincubating varying concentrations of the peptide with beta-galactosidase for 0.5 hour, then adding substrate FDG in solution and measuring 520 nm fluorescence upon 488 nm excitation at a series of time points.

[3] = tested on: T1, comparison attachment peptide (sequence ESVPTDLPMDTMEGKNWGSC (SEQ ID NO. 14))
T1 sequence: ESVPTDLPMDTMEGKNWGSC

[4] = tested on: T2, selected peptide having the sequence FRNFPVPVIFRYLNPWPGSC (SEQ ID NO. 2)
T2 sequence: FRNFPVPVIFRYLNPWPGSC

Row | Substance | wavelength shift on binding of carbonic anhydrase to peptide (carbonic anhydrase [1]) | also measured
1 | CA4: 20-residue candidate attachment peptide for carbonic anhydrase, C-terminal glycine-serine-cysteine; sequence only in FIG. 6A (HWHHRWWHHWKHPHHWRGSC; CA4 (Carbonic Anhydrase Peptide 4)) | wavelength shifts which persisted even after 180 minutes incubation | 
2 | CA8: 20-residue candidate attachment peptide for carbonic anhydrase, C-terminal glycine-serine-cysteine; sequence only in FIG. 6A (RHWKWHWWRRHHPHHWFGSC; CA8 (Carbonic Anhydrase Peptide 8)) | wavelength shifts which persisted even after 180 minutes incubation | 
3 | CA9: 20-residue candidate attachment peptide for carbonic anhydrase, C-terminal glycine-serine-cysteine; sequence only in FIG. 6A (RVFKRYKRWLHVSRYYFGSC; CA9 (Carbonic Anhydrase Peptide 9)) | wavelength shifts which persisted even after 180 minutes incubation | 
4 | CA11: 20-residue candidate attachment peptide for carbonic anhydrase, C-terminal glycine-serine-cysteine; sequence only in FIG. 6A (IEDTYLRFRHYGWYNNNGSC; CA11 (Carbonic Anhydrase Peptide 11)) | wavelength shifts which persisted even after 180 minutes incubation | wavelength shift upon application of dansylamide (time course) (carbonic anhydrase [2]): ~20 pm
5 | CA12: 20-residue candidate attachment peptide for carbonic anhydrase, C-terminal glycine-serine-cysteine; sequence only in FIG. 6A (SIGIYGHAIARPGGWYFGSC; CA12 (Carbonic Anhydrase Peptide 12)) | wavelength shifts which persisted even after 180 minutes incubation | 
6 | ESVPTDLPMDTMEGKNWGSC [SEQ ID NO. 14] |  | 520 nm fluorescence intensity (beta-galactosidase activity) relative to beta-galactosidase alone (beta-galactosidase): slightly higher than for beta-galactosidase alone
7 | FRNFPVPVIFRYLNPWPGSC [SEQ ID NO. 2] |  | 520 nm fluorescence intensity (beta-galactosidase activity) relative to beta-galactosidase alone (beta-galactosidase): significantly lower than that for beta-galactosidase alone
8 | beta-galactosidase |  | 520 nm fluorescence intensity (FDG hydrolysis by beta-galactosidase, solution phase) [3]: slightly higher than for beta-galactosidase alone; 520 nm fluorescence intensity (FDG hydrolysis by beta-galactosidase, solution phase; peptide at 2, 10, 50 and 100 µM) [4]: at all concentrations was significantly lower than that for beta-galactosidase alone
